From a melting point compilation (Tetko et al.; mined from patent text by program, amines drawn as free bases though some values may be those of a salt)

| SMILES | melting point [°C] |
| --- | --- |
| COCCOCc1c(CN(C)CC(O)c2ccccn2)sc2c(=O)c(C(=O)NCc3ccc(Cl)cc3)cn(C)c12 (stereo not drawn) | 150 to 152 |
| CC(C)(C)c1cc(C(=O)NNC(=O)c2occ(-c3ccccc3)c2-c2ccccc2)ccc1O | 244 to 247 |
| CC(C)C(C)(N)C(N)=S (stereo not drawn) | 98 to 100 |
| CC(C)NC(=O)c1nc(-c2cccc(F)c2)c(-c2ccc(=O)n(C(C)C)n2)s1 | 104 to 106 |
| O=C(CO[C@H]1Cc2c(cccc2OCc2ccccc2)C[C@H]1OCC(=O)N1CCOCC1)N1CCOCC1 (relative stereo) | 106 to 110 |
| O=C(NCO)N1CC(Oc2cccc(C(F)(F)F)c2)C1 | 113 to 115 |
| CCOC(=O)/C=C/c1cc(-c2c(CC(=O)Nc3ccc(Cl)cc3C(F)(F)F)c(=O)oc3cc(Cl)c(C)cc23)ccc1F | 160 to 162 |
| CCOc1ccc(-c2nc(OC)ccc2N2CCN(c3ccc(OC)cc3)CC2)cc1 | 125 to 128 |
| O=C(NC(Cc1ccccc1)C(=O)O)c1ccccc1O (stereo not drawn) | 52 to 53 |
| CCN(Cc1cc(Cl)ccc1OCC1CC1)c1ccc(C(=O)NS(=O)(=O)C(F)(F)F)nn1 | 150 |
| COc1ccnc(CSc2nc3c(C)c(OC(F)F)c(C)cc3[nH]2)c1 | 168 to 169 |
| Cc1ccc(C[C@@H]2CN(C(=O)/C=C/c3ccc(C(F)(F)F)cc3)CCN2C(=O)c2cc(C(F)(F)F)cc(C(F)(F)F)c2)cc1C | 74 to 76 |
| O=C(Cc1ccccc1Cl)Nc1ccc(C(=O)Oc2ccccc2)c(Cl)c1 | 160 to 163 |
| COCCCc1cc(N(C)Cc2sc(-c3ccc(C(F)(F)F)cc3)nc2C)ccc1OCC(=O)O | 142 to 143 |
| Cc1cc([N+](=O)[O-])cc(C)c1Oc1ccc(OCc2ccccc2)c(C(C)C)c1 | 99 to 100 |
| CO[Si]1(OC)CCCNCCN1 | 61 to 62 |
| COc1cccc(CC(=O)O)c1OCCCc1cc(OC(C)C)nn1Cc1c(F)cccc1Cl | 97 to 98 |
| O=c1oc2c(c(O)c1-c1ccccc1)CCCC2c1ccccc1 (stereo not drawn) | 185 |
| O=C(c1cc(C(F)(F)F)cc(C(F)(F)F)c1)N1CCC2(CC1)C(=O)NCN2c1ccc(Cl)c(Cl)c1 | 220 to 222 |
| Oc1cccc2c1CC1C(C2)C1(Cl)Cl (stereo not drawn) | 89 to 93 |
| O=Cc1ccc(/C=C/c2ccncc2)nc1 | 131 to 136 |

| SMILES | melting point [°C] |
| --- | --- |
| CSc1nc(-c2cc(C(C)(C)C)c(O)c(C(C)(C)C)c2)c(-c2ccccc2)[nH]1 | 129 to 131 |
| NNC(=O)c1ncc2[nH]c3ccccc3c2n1 | > 340 |
| CC(=O)NC1(c2ccc(CN3CCN(c4ncccn4)CC3)cc2)CC1 | 145 to 146 |
| CC(C)C(=O)C[C@@H](O)C(=O)O | 67 to 68 |
| Cn1nc(-c2ccc([N+](=O)[O-])cc2)c2ccccc2c1=O | 200 to 202 |
| CC(C)N(C)C(=O)COc1cc(-c2ccccc2)nc2ccccc12 | 80 |
| O=S(=O)(Nc1ccccc1OC1CCCCC1)C(F)(F)F | 83 to 85 |
| C#CCOc1cc(Cl)cc(Cl)c1OCC#C | 61 to 63 |
| CS[C@@H]1CC[C@H](C(=O)O)Cc2onc(-c3ccc(Cl)cc3)c21 (relative stereo) | 241 to 242 |
| COc1cccc(NC(=O)C(C)(C)C)c1CCO | 118 to 120 |
| CCOC(=O)c1c(C)cc2c(c1C)C(=O)OCC2=O | 142 to 144 |
| Cc1c(Br)cnc(NC(=O)C2CC2)c1[N+](=O)[O-] | 205 |
| O=C(O)CCC(Cc1ccccc1Cl)(C(=O)C=Cc1cccc(Cl)c1)c1ccccc1 (stereo not drawn) | 170 to 172 |
| O=C(CCc1cc(C2CCCCC2)c(O)c(C2CCCCC2)c1)NCCCCCCNC(=O)CCc1cc(C2CCCCC2)c(O)c(C2CCCCC2)c1 | 28 |
| CCCOc1c([N+](=O)[O-])cccc1[N+](=O)[O-] | 119 to 120 |
| COc1cc2c(cc1S(C)(=O)=O)CCN(C(C)=O)CC2 | 159 to 162 |
| Nc1ncc(CCN2CCN(c3ccccc3)CC2)s1 | 185 to 189 |
| COC(=O)n1cc2c(c1)C(OC(C)=O)N=C(c1ccccc1Cl)c1cc(Cl)ccc1-2 (stereo not drawn) | 175 to 177 |
| ClCCCCCCCCOc1ccc2ccccc2c1 | 35 |
| c1ccc(N(c2ccccc2)c2ccc(-c3ccc(-c4ccnc(C5Cc6ccccc6N5)n4)cc3)cc2)cc1 (stereo not drawn) | 247 to 248 |
| CC(C)(C)CC(C)(C)c1cc(-n2nc3ccccc3n2)c(O)c(C(C)(C)c2ccccc2)c1 | 109 to 111 |

| SMILES | melting point [°C] |
| --- | --- |
| OCCNc1cc(Nc2ccc(Cl)cc2)ncn1 | 183 |
| COc1ccc(COc2ccc(C(=O)N3CCc4cc(/C=C/CN(C)C)ccc43)cc2)cc1 | 164 to 166 |
| CC1(C)NC(=O)CN1C(=O)CN | 145 to 148 |
| O=C(COc1ccc(CN2CCCC2)cc1)Nc1ccc(Br)cc1 | 143 to 145 |
| COC=C(C(=O)OC)N(C)c1ncnc(-c2ccccc2)n1 | 98 to 101 |
| Cc1cc(-n2ccnc2)c2cccc(OCc3c(Cl)ccc(S(=O)(=O)N4CCCC4C(=O)NCC4CCN(CCC(=O)OC(C)(C)C)CC4)c3Cl)c2n1 (stereo not drawn) | 92 |
| Cc1ncoc1C(C)(O)c1ccco1 (stereo not drawn) | 73 to 75 |
| Cc1sc(CCc2ccc(C=O)cc2)nc1-c1ccccc1 | 66 to 67 |
| COC(C)c1cc(N2C(=O)C3=C(CCCC3)C2=O)c(F)cc1Cl (stereo not drawn) | 141 to 144 |
| O=[N+]([O-])c1c(CBr)cccc1Oc1ccccc1Cl | 68 to 70 |
| CC(=O)N1CCC(=C2c3ccc(Cl)cc3CCc3cccnc32)CC1 | 155 to 157 |
| O=C1c2cc([N+](=O)[O-])cc3cc([N+](=O)[O-])cc(c23)C(=O)N1O | 317 to 320 |
| OCc1cnoc1-c1ccc(F)c(Br)c1 | 134 to 135 |
| O=[N+]([O-])c1cccnc1Sc1nc(Cl)no1 | 84 |
| COc1cc2c(c(Cl)c1Cl)C(=O)c1ccccc1-2 | 268 to 270 |
| COc1ccc(N2CCN(Cc3nn(C(C)=O)c4cc(F)ccc34)CC2)cc1 | 94 to 95 |
| CC(=O)OCC1CCn2c(c(C3=C(c4cccc(C(F)(F)F)c4)C(=O)OC3=O)c3ccccc32)C1 (stereo not drawn) | 176 to 177 |
| CC1c2cccc3c2N(CC3)c2ccccc2N1C(=O)CCBr (stereo not drawn) | 149 to 151 |
| O=C(O)CCc1cnoc1-c1ccc2c(c1)OCO2 | 150 to 151 |
| Nc1ncc(Cl)c(CCl)c1Cl | 124 to 126 |

Further lines, results first:

| melting point [°C] | SMILES |
| --- | --- |
| 78 to 79 | FC(F)(F)c1cc(NCc2ccsc2)cc(C(F)(F)F)c1Br |
| 82 to 83 | O=C1C(=O)c2ccc(Br)cc2C2=C1SCC1(CCN(CC(O)Cc3ccccc3)CC1)O2 (stereo not drawn) |
| 99 | CCCCCC1CCC(c2ccc3c(c2F)C(F)(F)Oc2c-3ccc(OCCCC)c2F)CC1 (stereo not drawn) |
| 161 to 163 | N#CNC(=Nc1ccncc1)NCCSc1ccccc1 |
| 196 to 203 | CC(=O)NC(C)C1=NN(Cc2ccccc2)C(C)NC1=O (stereo not drawn) |
| 63 to 64 | CCSc1ccc(SCC)c(C#N)n1 |
| 132 to 134 | COC(=O)CCCC1C(=S)Nc2ccccc21 (stereo not drawn) |
| 80 to 83 | CCOC(=O)c1ccc(NCCCc2ccccc2)cc1 |
| 81 to 84 | FC(F)(F)c1nc(-c2ccc(NCc3ccccc3)cn2)no1 |
| 156 to 159 | O=C1CC2(CCO1)c1ccccc1Oc1ccccc12 |
| > 200 | COc1ccc(C(C)(C)C)cc1NC(=O)Nc1ccc(-c2cnc3c(c2)NC(=O)CO3)c2ccccc12 |
| 123 to 125 | CCSc1cc(C)nc(SCC)c1NC(=O)CCCSc1nc2ccccc2o1 |
| 62 to 68 | CC(C)(C)c1ccccc1NC(=O)OCC1(COC(=O)Nc2ccccc2C(C)(C)C)CSc2ccccc2C1=O |
| 213 to 216 | CC1COc2c(N3CCC(CN)C3)c(F)cc3c(=O)c(C(=O)O)cn1c23 (stereo not drawn) |
| 218 to 219 | COc1cccc(CNC(=O)c2nc3scc(NC(=O)Cc4ccc(C(=O)O)cc4)c3c(=O)[nH]2)c1 |
| 167 to 172 | CCCCn1c(S)nc2ccccc2c1=O |
| 145 to 155 | CC1CC2C3CCC4=CC(=O)C=CC4(C)C3=CCC2(C)C1C(=O)CN1CCN(c2cc(NC(C)(C)C)nc(NC(C)(C)C)n2)CC1 (stereo not drawn) |
| 166 | Fc1cccc(F)c1C1=NC(c2ccc(-c3ccc(OCc4ccc(C(F)(F)F)cc4)cc3)cc2)CO1 (stereo not drawn) |

| melting point [°C] | SMILES |
| --- | --- |
| 71 to 72 | O=C(O)c1oc2ccc(Cl)cc2c1-c1ccccc1C(F)(F)F |
| 137 to 145 | COc1cc(C)nc(NC(=O)NS(=O)(=O)c2cccc(NC(=O)NC(C)(C)C)c2)n1 |
| 120 to 121 | CC(C)(C)OC(=O)NC(CC(O)CNC(Cc1ccccc1)C(O)CNC(=O)OCc1ccccc1)c1ccccc1 (stereo not drawn) |
| 230 to 231 | CCCOc1ccccc1-c1nc(NC(C)=O)cc(=O)[nH]1 |
| 134 to 137 | C=CCC(C(=O)O)(c1ccccc1)c1ccccc1 |
| 183 to 186 | CCCOc1ccc(S(=O)(=O)N2CCN(CC)CC2)cc1-c1nc2cc(N)c(N)cc2c(=O)[nH]1 |
| 273 to 276 | CC(=NNC(=N)N)c1sc(-c2ccc(C3CCCCC3)cc2)nc1C |
| 207 to 208 | CCOC(=O)c1ccc(-c2nc(O)c(C)s2)cc1 |
| 107 to 110 | Nc1ccccc1C(=O)NCCCn1ccnc1 |
| 191 to 193 | COc1cc2c(cc1OC)-c1c(-c3nc(-c4ccccc4)no3)c(-c3cc(C)c(O)c(C)c3)c(C)n1CC2 |
| 114 | C=Cc1cc(C)nc2c(OCc3ccccc3)cccc12 |
| 60 to 62 | CCCCCCCCCCCCCCCCCCOCCSCCOC(=O)NCc1ccccn1 |
| 177 to 178 | CN1CCN(c2ccccc2C=C2CCCN(c3ccc(Cl)cc3)C2=O)CC1 |
| 159 to 161 | OC(Cn1cncn1)(Cn1cnc(C=Cc2ccc(C(F)(F)F)cc2)n1)c1ccc(Cl)cn1 (stereo not drawn) |
| 180 to 181 | CCCN1CC(c2ccc(F)cc2)=C(c2ccc(S(N)(=O)=O)cc2)C1=O |
| 95 to 97 | CCCC(=O)Nc1ncc(C(C)C)s1 |
| 120 to 123 | COc1ccc2ncc(N)c(Nc3ccccc3Cl)c2c1 |
| 254 to 256 | O=C1NCCc2c1c1cccc3c1n2CCC3 |
